According to patent US20250275959A1, “COMPOUNDS AND METHODS OF THEIR USE” (LEXICON PHARMACEUTICALS, INC., priority 2024, published 2025):

Legend:
hACSL5 [1] = biological target: T1, hACSL5 (Homo sapiens (Human), UniProt Q9ULC5); assay: Human ACSL5 coupled enzyme Amplex Red assay; type: biochemical; details: read-out: hACSL5 IC50
How it was run: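 C-terminally His-tagged ACSL5 (33-683) from sf9 cells, 20 nM, was preincubated with compound in MOPS-NaOH pH 7.6 with MgCl2, peroxidase and acyl-CoA oxidase. Reactions were started with 25 μM oleate, 30 μM CoA, 1 mM ATP and 50 μM Amplex Red; fluorescence (535/590 nm) after 10 minutes at 25° C. was fitted to the Hill equation for IC50 and maximal inhibition.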
Target sequence in this assay (Q9ULC5 33-683): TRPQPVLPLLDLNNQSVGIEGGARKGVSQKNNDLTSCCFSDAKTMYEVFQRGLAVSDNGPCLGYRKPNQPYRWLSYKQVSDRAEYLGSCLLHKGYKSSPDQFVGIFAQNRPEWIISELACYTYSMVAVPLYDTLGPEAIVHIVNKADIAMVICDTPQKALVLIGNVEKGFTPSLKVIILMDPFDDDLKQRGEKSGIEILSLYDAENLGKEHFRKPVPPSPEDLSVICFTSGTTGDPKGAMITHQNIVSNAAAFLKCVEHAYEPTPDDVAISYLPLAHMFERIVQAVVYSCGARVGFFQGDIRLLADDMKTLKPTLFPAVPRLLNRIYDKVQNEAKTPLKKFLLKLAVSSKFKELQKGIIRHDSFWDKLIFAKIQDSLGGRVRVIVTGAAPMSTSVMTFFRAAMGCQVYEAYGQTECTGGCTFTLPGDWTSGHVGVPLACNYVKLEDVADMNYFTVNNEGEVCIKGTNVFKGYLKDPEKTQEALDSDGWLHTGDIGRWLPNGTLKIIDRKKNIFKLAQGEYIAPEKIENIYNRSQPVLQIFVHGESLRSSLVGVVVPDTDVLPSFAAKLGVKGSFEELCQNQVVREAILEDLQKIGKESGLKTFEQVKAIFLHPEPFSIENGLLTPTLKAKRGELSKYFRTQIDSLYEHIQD

hACSL5 [2] = biological target: T1, hACSL5; assay: Cell-based assay (CBA) with B12FA in hACSL5-transfected Expi293F / FlpIn TRex293 cells; details: hACSL5-expressing cells
Source text: To assess the cell penetration and cellular activity of the compounds, a cell-based assay (CBA) was used to detect compound potency in living cells. The assay utilized the fluorescent fatty acid analogue B12FA, a boron-dipyrromethene (BODIPY™) labelled C12 fatty acid that can be incorporated into glycerophosphocholine in the cytoplasmic oil droplets of live cells. A concentration-dependent, red-shifted fluorescence can be induced by the formation of BODIPY™ excimers in the oil droplets.
Expi293F cells transfected with full length hACSL5 plasmid were selected using 1 mg/mL G418 culture medium and clones were selected by in vitro whole cell lysate (WCL) assay. The cell passage number used in the Expi293 CBA assay could not be used beyond 10 passages due to a decrease in hACSL5 expression. Therefore, a CBA using FlpIn TRex293 cells for inducible expression of hACSL5 was also established.
FlpIn TRex293 cells transfected with hACSL5 plasmid were selected in culture medium containing 15 µg/ml Blasticidin and 150 µg/ml Hygromycin. For cell-based assays, stable transfected hACSL5 cells were seeded onto a 96-well plate at 30-50k/well and incubated overnight. For the inducible system, […] tetracycline (or doxycycline) was added to culture medium of FlpIn TRex293 hACSL5 cells on the day before the assay to induce expression of hACSL5. The next day, growth media was replaced with culture medium without FBS and glucose (DMEM glucose (-), ThermoFisher) and cells were incubated for an hour before treating cells with serial diluted compounds containing 20 µM B12FA (ThermoFisher) for another 3 hours in the above medium. Cells were then fixed in 4% formaldehyde for 10 minutes and washed twice with PBS. The plate was read using the Cytation 5 imaging system with an excitation wavelength of 485 nm and observed emissions at 630 nm and 520 nm. The percentage of inhibition was calculated as: […]
wherein A is the ratio of emission intensities at 630 nm/520 nm in the absence of inhibitor (maximum ratio); B is the ratio of the intensities at those wavelengths in the presence of […] of the test compound or non-induced cells (minimum ratio); and X is the ratio of the intensities at a given compound concentration.
Concentration-response titration points for each compound tested were filled to the Hill equation yielding concentrations of half maximal inhibition […] and maximal inhibition values.
Target sequence in this assay (Q9ULC5 whole entry): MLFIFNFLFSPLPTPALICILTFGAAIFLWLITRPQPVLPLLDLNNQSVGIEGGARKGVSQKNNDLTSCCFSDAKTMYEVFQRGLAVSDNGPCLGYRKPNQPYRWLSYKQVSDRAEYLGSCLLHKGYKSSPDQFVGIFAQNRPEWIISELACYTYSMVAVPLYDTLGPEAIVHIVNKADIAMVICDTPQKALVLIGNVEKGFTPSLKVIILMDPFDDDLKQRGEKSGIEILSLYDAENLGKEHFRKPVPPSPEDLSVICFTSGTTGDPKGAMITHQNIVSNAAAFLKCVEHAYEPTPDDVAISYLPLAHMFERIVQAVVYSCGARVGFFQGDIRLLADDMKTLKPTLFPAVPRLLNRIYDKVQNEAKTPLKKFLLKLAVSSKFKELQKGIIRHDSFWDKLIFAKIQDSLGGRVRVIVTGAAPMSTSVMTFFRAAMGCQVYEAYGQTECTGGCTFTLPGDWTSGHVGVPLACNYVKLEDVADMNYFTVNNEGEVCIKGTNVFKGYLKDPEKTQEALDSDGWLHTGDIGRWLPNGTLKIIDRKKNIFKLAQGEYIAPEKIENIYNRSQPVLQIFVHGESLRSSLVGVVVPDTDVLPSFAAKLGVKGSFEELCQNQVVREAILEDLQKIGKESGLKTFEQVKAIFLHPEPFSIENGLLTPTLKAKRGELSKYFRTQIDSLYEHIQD

Row | Structure (SMILES) | IC50 (hACSL5 [1]) | IC50 (hACSL5 [2])
1 | CC[C@@H](Oc1ccc(C(=O)NS(=O)(=O)N2CCN(CC(C)(C)F)CC2)c(F)c1F)c1ccc(OCC2CC2)cn1 [(R)-4-(1-(5-(cyclopropylmethoxy)pyridin-2-yl)propoxy)-2,3-difluoro-N-((4-(2-fluoro-2-methylpropyl)piperazin-1-yl)sulfonyl)benzamide] | < 100 nM | < 100 nM
2 | CC[C@@H](Oc1ccc(C(=O)NS(=O)(=O)N2CCN(CC(C)(C)O)CC2)c(F)c1F)c1ccc(OCC2CC2)cn1 [(R)-4-(1-(5-(cyclopropylmethoxy)pyridin-2-yl)propoxy)-2,3-difluoro-N-((4-(2-hydroxy-2-methylpropyl)piperazin-1-yl)sulfonyl)benzamide] | < 100 nM | 100 to 500 nM
3 | CC[C@@H](Oc1ccc(C(=O)NS(=O)(=O)N2CCN(CCOC)CC2)c(F)c1F)c1ccc(OCC2CC2)cn1 [(R)-4-(1-(5-(cyclopropylmethoxy)pyridin-2-yl)propoxy)-2,3-difluoro-N-((4-(2-methoxyethyl)piperazin-1-yl)sulfonyl)benzamide] | < 100 nM | < 100 nM
4 | CC[C@@H](Oc1ccc(C(=O)NS(=O)(=O)c2ccc(OCCN3CCOCC3)cc2)c(F)c1F)c1ccc(OCC2CC2)cn1 [(R)-4-(1-(5-(cyclopropylmethoxy)pyridin-2-yl)propoxy)-2,3-difluoro-N-((4-(2-morpholinoethoxy)phenyl)sulfonyl)benzamide] | < 100 nM | > 500 nM
5 | CC[C@@H](Oc1ccc(C(=O)NS(=O)(=O)c2ccc(OC3CCN(CC(C)(C)O)CC3)cc2)c(F)c1F)c1ccc(OCC2CC2)cn1 [(R)-4-(1-(5-(cyclopropylmethoxy)pyridin-2-yl)propoxy)-2,3-difluoro-N-((4-((1-(2-hydroxy-2-methylpropyl)piperidin-4-yl)oxy)phenyl)sulfonyl)benzamide] | < 100 nM | 100 to 500 nM
6 | CC[C@@H](Oc1ccc(C(=O)NS(=O)(=O)N2CCC(OC3CCN(CC(C)(C)O)CC3)CC2)c(F)c1F)c1ccc(OCC2CC2)cn1 [(R)-4-(1-(5-(cyclopropylmethoxy)pyridin-2-yl)propoxy)-2,3-difluoro-N-((4-((1-(2-hydroxy-2-methylpropyl)piperidin-4-yl)oxy)piperidin-1-yl)sulfonyl)benzamide] | < 100 nM | 100 to 500 nM
7 | CC[C@@H](Oc1ccc(C(=O)NS(=O)(=O)c2ccc(OC3CCN(CCO)CC3)cc2)c(F)c1F)c1ccc(OCC2CC2)cn1 [(R)-4-(1-(5-(cyclopropylmethoxy)pyridin-2-yl)propoxy)-2,3-difluoro-N-((4-((1-(2-hydroxyethyl)piperidin-4-yl)oxy)phenyl)sulfonyl)benzamide] | < 100 nM | 100 to 500 nM
8 | CC[C@@H](Oc1ccc(C(=O)NS(=O)(=O)c2ccc(OC3CCN(CCOC)CC3)cc2)c(F)c1F)c1ccc(OCC2CC2)cn1 [(R)-4-(1-(5-(cyclopropylmethoxy)pyridin-2-yl)propoxy)-2,3-difluoro-N-((4-((1-(2-methoxyethyl)piperidin-4-yl)oxy)phenyl)sulfonyl)benzamide] | < 100 nM | < 100 nM
9 | CC[C@@H](Oc1ccc(C(=O)NS(=O)(=O)N2CCC(OC3CCN(CCOC)CC3)CC2)c(F)c1F)c1ccc(OCC2CC2)cn1 [(R)-4-(1-(5-(cyclopropylmethoxy)pyridin-2-yl)propoxy)-2,3-difluoro-N-((4-((1-(2-methoxyethyl)piperidin-4-yl)oxy)piperidin-1-yl)sulfonyl)benzamide] | < 100 nM | < 100 nM
10 | [2H]C([2H])([2H])N1CCC(Oc2ccc(S(=O)(=O)NC(=O)c3ccc(O[C@H](CC)c4ccc(OCC5CC5)cn4)c(F)c3F)cc2)CC1 [(R)-4-(1-(5-(cyclopropylmethoxy)pyridin-2-yl)propoxy)-2,3-difluoro-N-((4-((1-(methyl-d3)piperidin-4-yl)oxy)phenyl)sulfonyl)benzamide] | < 100 nM | < 100 nM

The remaining lines, values ahead:

Row | IC50 (hACSL5 [1]) | IC50 (hACSL5 [2]) | Structure (SMILES)
11 | < 100 nM | 100 to 500 nM | CC[C@@H](Oc1ccc(C(=O)NS(=O)(=O)c2ccc(OC3CCN(C(C)C)CC3)cc2)c(F)c1F)c1ccc(OCC2CC2)cn1 [(R)-4-(1-(5-(cyclopropylmethoxy)pyridin-2-yl)propoxy)-2,3-difluoro-N-((4-((1-isopropylpiperidin-4-yl)oxy)phenyl)sulfonyl)benzamide]
12 | < 100 nM | 100 to 500 nM | CC[C@@H](Oc1ccc(C(=O)NS(=O)(=O)c2ccc(OC3CN(C)C3)cc2)c(F)c1F)c1ccc(OCC2CC2)cn1 [(R)-4-(1-(5-(cyclopropylmethoxy)pyridin-2-yl)propoxy)-2,3-difluoro-N-((4-((1-methylazetidin-3-yl)oxy)phenyl)sulfonyl)benzamide]
13 | < 100 nM | < 100 nM | CC[C@@H](Oc1ccc(C(=O)NS(=O)(=O)c2ccc(OC3CCN(C)CC3)cc2)c(F)c1F)c1ccc(OCC2CC2)cn1 [(R)-4-(1-(5-(cyclopropylmethoxy)pyridin-2-yl)propoxy)-2,3-difluoro-N-((4-((1-methylpiperidin-4-yl)oxy)phenyl)sulfonyl)benzamide]
14 | < 100 nM | 100 to 500 nM | CC[C@@H](Oc1ccc(C(=O)NS(=O)(=O)N2CCC(OC3CCN(C)CC3)CC2)c(F)c1F)c1ccc(OCC2CC2)cn1 [(R)-4-(1-(5-(cyclopropylmethoxy)pyridin-2-yl)propoxy)-2,3-difluoro-N-((4-((1-methylpiperidin-4-yl)oxy)piperidin-1-yl)sulfonyl)benzamide]
15 | < 100 nM | > 500 nM | CC[C@@H](Oc1ccc(C(=O)NS(=O)(=O)c2ccc(OC3CCNCC3)cc2)c(F)c1F)c1ccc(OCC2CC2)cn1 [(R)-4-(1-(5-(cyclopropylmethoxy)pyridin-2-yl)propoxy)-2,3-difluoro-N-((4-(piperidin-4-yloxy)phenyl)sulfonyl)benzamide]
16 | 100 to 500 nM | 100 to 500 nM | CC[C@@H](Oc1ccc(C(=O)NS(=O)(=O)N2CCN(C(C)C)CC2)c(F)c1F)c1ccc(OCC2CC2)cn1 [(R)-4-(1-(5-(cyclopropylmethoxy)pyridin-2-yl)propoxy)-2,3-difluoro-N-((4-isopropylpiperazin-1-yl)sulfonyl)benzamide]
17 | 100 to 500 nM | 100 to 500 nM | CC[C@@H](Oc1ccc(C(=O)NS(=O)(=O)N2CCCN(C)CC2)c(F)c1F)c1ccc(OCC2CC2)cn1 [(R)-4-(1-(5-(cyclopropylmethoxy)pyridin-2-yl)propoxy)-2,3-difluoro-N-((4-methyl-1,4-diazepan-1-yl)sulfonyl)benzamide]
18 | < 100 nM | < 100 nM | CC[C@@H](Oc1ccc(C(=O)NS(=O)(=O)N2CCN(C)CC2)c(F)c1F)c1ccc(OCC2CC2)cn1 [(R)-4-(1-(5-(cyclopropylmethoxy)pyridin-2-yl)propoxy)-2,3-difluoro-N-((4-methylpiperazin-1-yl)sulfonyl)benzamide]
19 | < 100 nM | > 500 nM | CC[C@@H](Oc1ccc(C(=O)NS(=O)(=O)c2ccc(NC3CCN(C)CC3)cn2)c(F)c1F)c1ccc(OCC2CC2)cn1 [(R)-4-(1-(5-(cyclopropylmethoxy)pyridin-2-yl)propoxy)-2,3-difluoro-N-((5-((1-methylpiperidin-4-yl)amino)pyridin-2-yl)sulfonyl)benzamide]
20 | < 100 nM | > 500 nM | CC[C@@H](Oc1ccc(C(=O)NS(=O)(=O)c2ccc(OC3CCN(C)CC3)cn2)c(F)c1F)c1ccc(OCC2CC2)cn1 [(R)-4-(1-(5-(cyclopropylmethoxy)pyridin-2-yl)propoxy)-2,3-difluoro-N-((5-((1-methylpiperidin-4-yl)oxy)pyridin-2-yl)sulfonyl)benzamide]
21 | < 100 nM | > 500 nM | CC[C@@H](Oc1ccc(C(=O)NS(=O)(=O)N2CC3(CC(OCCN4CCCC4)C3)C2)c(F)c1F)c1ccc(OCC2CC2)cn1 [(R)-4-(1-(5-(cyclopropylmethoxy)pyridin-2-yl)propoxy)-2,3-difluoro-N-((6-(2-(pyrrolidin-1-yl)ethoxy)-2-azaspiro[3.3]heptan-2-yl)sulfonyl)benzamide]
22 | < 100 nM | > 500 nM | CC[C@@H](Oc1ccc(C(=O)NS(=O)(=O)c2ccc(OCCN3CCCC3)nn2)c(F)c1F)c1ccc(OCC2CC2)cn1 [(R)-4-(1-(5-(cyclopropylmethoxy)pyridin-2-yl)propoxy)-2,3-difluoro-N-((6-(2-(pyrrolidin-1-yl)ethoxy)pyridazin-3-yl)sulfonyl)benzamide]
